Among the data in patent publication US4557871A, “Novel styrene derivatives of the general formula” (Taisho Pharmaceutical Co., Ltd., priority 1983, dated 1985) are inhibition and Inhibition of edema values, retold here.

The first assay concerns edema in left hind paw. The experiment in a line: Duration of inhibition of carrageenin-induced hind paw edema, test compound orally 1, 24 or 48 hours before inducing the edema. The conditions noted are these: Rattus norvegicus; dose 1.5 mg/kg oral, 1 hr before inducing edema; read-out: Inhibition of edema, 1 hr. The format is in vivo, Male Wistar rats. The procedure:
Anti-inflammatory activity was evaluated by the Winter's method [Journal of Pharmacology and Experimental Therapeutics, volume 141, page 369(1963)]. […] Volumes of the hind paws were determined with a volume meter 3 hours after the injection of carrageenin. Indomethacin (Control 1) and 4-vinylphenylacetic acid (Control 2) were used as controls.
Following a procedure similar to that of Test example 1, the test compounds were administered orally to the rats 1, 24 or 48 hours before inducing the edema, and there was obtained a result shown in Table 2.
Background: The carrageenan paw model is a standard test of acute inflammation.
Consider `CN1C(C(=O)Nc2ccccn2)=C(O)c2ccccc2S1(=O)=O` [Control 3, piroxicam], for which the inhibition at 1.5 mg/kg stood at 48.6%.

Staying with this assay, now noted: Rattus norvegicus; dose 1.5 mg/kg oral, 24 hrs before inducing edema; read-out: Inhibition of edema, 24 hrs.
For `CN1C(C(=O)Nc2ccccn2)=C(O)c2ccccc2S1(=O)=O` [Control 3, piroxicam], the inhibition at 1.5 mg/kg turned out to be 13.3%.

Still in this assay, the particulars now being: Rattus norvegicus; dose 1.5 mg/kg oral, 48 hrs before inducing edema; read-out: Inhibition of edema, 48 hrs.
`CN1C(C(=O)Nc2ccccn2)=C(O)c2ccccc2S1(=O)=O` [Control 3, piroxicam]: the inhibition at 1.5 mg/kg stood at 2.1%.

The same assay, now with this note: Rattus norvegicus; dose 6 mg/kg oral, 1 hr before inducing edema; read-out: Inhibition of edema, 1 hr.
For the compound `CC(C)=Cc1ccc(C(C)C(=O)O)cc1` (centres unmarked) [Control 4, 2-[4-(2,2-dimethylvinyl)phenyl]propionic acid], the inhibition at 6 mg/kg worked out at 59.3%.

Staying with this assay, now noted: Rattus norvegicus; dose 6 mg/kg oral, 24 hrs before inducing edema; read-out: Inhibition of edema, 24 hrs.
As to `CC(C)=Cc1ccc(C(C)C(=O)O)cc1` (centres unmarked) [Control 4, 2-[4-(2,2-dimethylvinyl)phenyl]propionic acid], the inhibition at 6 mg/kg was -8.5%.

The same assay, now with this note: Rattus norvegicus; dose 6 mg/kg oral, 48 hrs before inducing edema; read-out: Inhibition of edema, 48 hrs.
In the case of `CC(C)=Cc1ccc(C(C)C(=O)O)cc1` (centres unmarked) [Control 4, 2-[4-(2,2-dimethylvinyl)phenyl]propionic acid], the inhibition at 6 mg/kg was determined as 3.7%.

The assay is the same for the next values; noted with them: Rattus norvegicus; dose 30 mg/kg oral, 1 hr before inducing edema; read-out: Inhibition of edema, 1 hr.
For the compound `C=Cc1ccc(CC(=O)O)cc1` [Control 2, 4-vinylphenylacetic acid], the inhibition at 30 mg/kg was found to be 40.2%.

Still in this assay, the particulars now being: Rattus norvegicus; dose 30 mg/kg oral, 24 hrs before inducing edema; read-out: Inhibition of edema, 24 hrs.
On to `C=Cc1ccc(CC(=O)O)cc1` [Control 2, 4-vinylphenylacetic acid], for which the inhibition at 30 mg/kg was 1.3%.

The assay is the same for the next values; noted with them: Rattus norvegicus; dose 30 mg/kg oral, 48 hrs before inducing edema; read-out: Inhibition of edema, 48 hrs.
`C=Cc1ccc(CC(=O)O)cc1` [Control 2, 4-vinylphenylacetic acid]: the inhibition at 30 mg/kg is -3.5%.

The test system of another assay is edema in left hind paw. In words: Carrageenin-induced hind paw edema in rats, test compound orally 1 hour before (Winter's method), anti-inflammatory activity. The format is in vivo, Male Wistar rats. The conditions noted are these: 6 mg/kg oral, one hour before carrageenin; paw volume 3 hours after carrageenin. The procedure: Anti-inflammatory activity was evaluated by the Winter's method [Journal of Pharmacology and Experimental Therapeutics, volume 141, page 369(1963)]. Male Wistar rats (group of 6 animals) were administered orally the test compounds (dose: 6 mg/kg) one hour before inducing the edema in left hind paw with 0.1 ml of a 1% carrageenin-saline suspension. Volumes of the hind paws were determined with a volume meter 3 hours after the injection of carrageenin. Indomethacin (Control 1) and 4-vinylphenylacetic acid (Control 2) were used as controls.
`CC(C(=O)O)c1ccc(C=C(Cl)Cl)cc1` (centres unmarked) [ST-37, Aluminum 2-[4-(2,2-dichlorovinyl)phenyl]propionate] gave an Inhibition of edema of 63.1%.
The same measure, in the same setting: with `CC(C(=O)O)c1ccc(C=C(Cl)Cl)cc1` (centres unmarked) [ST-39, 2-Pyridylammonium 2-[4-(2,2-dichlorovinyl)phenyl]propionate] the figure was 51.4%; with `CC(C(=O)O)c1ccc(C=C(Cl)Cl)cc1` (centres unmarked) [ST-38, morpholinium 2-[4-(2,2-dichlorovinyl)phenyl]propionate], 35.6%.
The same measure, in the same setting: the value for `CC(C(=O)O)c1ccc(C=C(Cl)Cl)cc1` (centres unmarked) [ST-36, calcium 2-[4-(2,2-dichlorovinyl)phenyl]propionate] was 43.0%.

The assay is the same for the next values; noted with them: Rattus norvegicus, po, 6 mg/kg oral, one hour before carrageenin; paw volume 3 hours after carrageenin; read-out: Inhibition of edema.
Regarding `CC(C)=CCC/C(C)=C/COC(=O)C(C)c1ccc(C=C(Cl)Cl)cc1` (centres unmarked) [ST-58, geranyl 2-[4-(2,2-dichlorovinyl)phenyl]propionate], the inhibition at 6 mg/kg was 39%.
The same measure, in the same setting: the value for `CC(C(=O)OCc1ccccn1)c1ccc(C=C(Cl)Cl)cc1` (centres unmarked) [ST-44, 2-Pyridylmethyl 2-[4-(2,2-dichlorovinyl)phenyl]propionate] was 59.8%.
Same read-out and setting: the value for `CC(C(=O)Nc1ccc(C(=O)O)cc1)c1ccc(C=C(Cl)Cl)cc1` (centres unmarked) [ST-20, 4-{2-[4-(2,2-Dichlorovinyl)phenyl]propionylamino}benzoic acid] was 47%.
Regarding `CC(C)CCOC(=O)C(C)c1ccc(C=C(Cl)Cl)cc1` (centres unmarked) [ST-42, Isopentyl 2-[4-(2,2-dichlorovinyl)phenyl]propionate], the inhibition at 6 mg/kg was determined as 60.4%.
The same measure, in the same setting: the value for `CC(C)=CCCC(C)=CCCC(C)=CCOC(=O)C(C)c1ccc(C=C(Cl)Cl)cc1` (centres unmarked) [ST-60, Farnesyl 2-[4-(2,2-dichlorovinyl)phenyl]propionate] was 50.8%; that for `CC(C)=CCC/C(C)=C/COC(=O)C(C)c1ccc(C=C(Cl)Cl)c(Cl)c1` (centres unmarked) [ST-62, Geranyl 2-[3-chloro-4-(2,2-dichlorovinyl)phenyl]propionate] was 43.2%; that for `CC(C(=O)Nc1ccc(F)cc1)c1ccc(C=C(Cl)Cl)cc1` (centres unmarked) [ST-17, N-(4-Fluorophenyl)-2-[4-(2,2-dichlorovinyl)phenyl]propionamide] was 40%.
Still for that read-out and setting: the value for `CC(C(=O)OCCO)c1ccc(C=C(Cl)Cl)cc1` (centres unmarked) [ST-59, 2-Hydroxyethyl 2-[4-(2,2-dichlorovinyl)phenyl]propionate] was 57.3%; that for `CC(C)=CCOC(=O)C(C)c1ccc(C=C(Cl)Cl)c(F)c1` (centres unmarked) [ST-50, Prenyl 2-[4-(2,2-dichlorovinyl)-3-fluorophenyl]propionate] was 61.4%.
As to `CC(C(=O)OC1CCCCC1)c1ccc(C=C(Cl)Cl)cc1` (centres unmarked) [ST-61, Cyclohexyl 2-[4-(2,2-dichlorovinyl)phenyl]propionate], the inhibition at 6 mg/kg was 43.7%.
On the same count and under the same terms, with `C=Cc1ccc(CC(=O)O)cc1` [Control 2, 4-vinylphenylacetic acid] the figure was 15.7%; with `CC(C(=O)NCC(=O)O)c1ccc(C=C(Cl)Cl)cc1` (centres unmarked) [ST-24, N-{2-[4-(2,2-Dichlorovinyl)phenyl]propionyl}glycine], 30%; with `CC(C(=O)OC1OC(=O)c2ccccc21)c1ccc(C=C(Cl)Cl)cc1` (centres unmarked) [ST-49, 2-Phthalidyl 2-[4-(2,2-dichlorovinyl)phenyl]propionate], 53.3%.
On the same count and under the same terms, the value for `CC(C(=O)Nc1ccc(Cl)cc1)c1ccc(C=C(Cl)Cl)cc1` (centres unmarked) [ST-16, N-(4-Chlorophenyl)-2-[4-(2,2-dichlorovinyl)phenyl]propionamide] was 43.1%; that for `O=C(O)Cc1cccc(C=C(Cl)Cl)c1` [ST-3, 3-(2,2-Dichlorovinyl)phenylacetic acid] was 31.9%.
Same read-out and setting: with `CCOC(=O)CNC(=O)C(C)c1ccc(C=C(Cl)Cl)cc1` (centres unmarked) [ST-23, N-{2-[4-(2,2-Dichlorovinyl)phenyl]propionyl}glycine ethyl ester] the figure was 35.5%; with `CC(=O)OC(C)OC(=O)C(C)c1ccc(C=C(Cl)Cl)cc1` (centres unmarked) [ST-45, 1-(Acetoxy)ethyl 2-[4-(2,2-dichlorovinyl)phenyl]propionate], 44.8%.
In the case of `CC(CO)c1ccc(C=C(Cl)Cl)cc1` (centres unmarked) [ST-10, 2-[4-(2,2-dichlorovinyl)phenyl]propanol], the inhibition at 6 mg/kg was found to be 62.4%.
Still for that read-out and setting: the value for `CCOC(=O)C(C)c1ccc(C=C(Cl)Cl)cc1` (centres unmarked) [ST-5, ethyl 2-[4-(2,2-dichlorovinyl)phenyl]propionate] was 46.5%; that for `O=C(O)Cc1ccc(C=C(Cl)Cl)cc1` [ST-2, 4-(2,2-Dichlorovinyl)phenylacetic acid] was 63.9%.
For `Cc1ccc(NC(=O)C(C)c2ccc(C=C(Cl)Cl)cc2)cc1` (centres unmarked) [ST-14, N-(4-Methylphenyl)-2-[4-(2,2-dichlorovinyl)phenyl]propionamide], the inhibition at 6 mg/kg was determined as 33.6%.
Still for that read-out and setting: with `CCOC(=O)C(C)c1ccc(C=C(Cl)Cl)c(F)c1` (centres unmarked) [ST-55, ethyl 2-[4-(2,2-dichlorovinyl)-3-fluorophenyl]propionate] the figure was 38.2%.
On the same count and under the same terms, the value for `CCC(=O)OCOC(=O)C(C)c1ccc(C=C(Cl)Cl)cc1` (centres unmarked) [ST-46, Propionyloxymethyl 2-[4-(2,2-dichlorovinyl)phenyl]propionate] was 32.2%; that for `CCC(=O)OC(C)OC(=O)C(C)c1ccc(C=C(Cl)Cl)cc1` (centres unmarked) [ST-47, 1-(Propionyloxy)ethyl 2-[4-(2,2-dichlorovinyl)phenyl]propionate] was 49.9%.
As for `CCCCCCCCCCCCCCCC(=O)OC(C)OC(=O)C(C)c1ccc(C=C(Cl)Cl)cc1` (centres unmarked) [ST-48, 1-(Palmitoyloxy)ethyl 2-[4-(2,2-dichlorovinyl)phenyl]propionate], the inhibition at 6 mg/kg turned out to be 32.7%.
As to `CC(C(=O)O)c1ccc(C=C(F)F)cc1` (centres unmarked) [ST-7, 2-[4-(2,2-difluorovinyl)phenyl]propionic acid], the inhibition at 6 mg/kg came out at 48.4%.
Still for that read-out and setting: the value for `CC(C(=O)O)c1ccc(C=C(Cl)Cl)c(F)c1` (centres unmarked) [ST-8, 2-[4-(2,2-dichlorovinyl)-3-fluorophenyl]propionic acid] was 64.8%; that for `COCOC(=O)C(C)c1ccc(C=C(Cl)Cl)cc1` (centres unmarked) [ST-43, Methoxymethyl 2-[4-(2,2-dichlorovinyl)phenyl]propionate] was 37.1%.
For the compound `CC(C(=O)Nc1ccccn1)c1ccc(C=C(Cl)Cl)cc1` (centres unmarked) [ST-22, N-(2-Pyridyl)-2-[4-(2,2-dichlorovinyl)phenyl]propionamide], the inhibition at 6 mg/kg turned out to be 35.5%.
Consider `CCNC(=O)C(C)c1ccc(C=C(Cl)Cl)cc1` (centres unmarked) [ST-25, N-Ethyl-2-[4-(2,2-dichlorovinyl)phenyl]propionamide], for which the inhibition at 6 mg/kg came out at 37.1%.
Turning to `CC(C)=CCOC(=O)C(C)c1ccc(C=C(Cl)Cl)cc1` (centres unmarked) [ST-41, prenyl 2-[4-(2,2-dichlorovinyl)phenyl]propionate], the inhibition at 6 mg/kg was determined as 48.8%.
The same measure, in the same setting: the value for `CC(C(N)=O)c1ccc(C=C(Cl)Cl)cc1` (centres unmarked) [ST-11, 2-[4-(2,2-dichlorovinyl)phenyl]propionamide] was 26.5%; that for `CC(C(=O)O)c1ccc(C=C(Cl)Cl)c(Cl)c1` (centres unmarked) [ST-9, 2-[3-Chloro-4-(2,2-dichlorovinyl)phenyl]propionic acid] was 58%.
On the same count and under the same terms, with `CCOC(=O)C(C)c1ccc(C=C(Cl)Cl)c(Cl)c1` (centres unmarked) [ST-56, Ethyl 2-[3-chloro-4-(2,2-dichlorovinyl)phenyl]propionate] the figure was 39.4%; with `CC(C(=O)NO)c1ccc(C=C(Cl)Cl)cc1` (centres unmarked) [ST-34, 2-[4-(2,2-dichlorovinyl)phenyl]propionylhydroxamic acid], 32.5%.
For the compound `CC(C(=O)O)c1cccc(C=C(Cl)Cl)c1` (centres unmarked) [ST-4, 2-[3-(2,2-Dichlorovinyl)phenyl]propionic acid], the inhibition at 6 mg/kg was determined as 32%.

Still in this assay, the particulars now being: Rattus norvegicus, po, read-out: Inhibition of edema, 6 mg/kg oral, one hour before carrageenin; paw volume 3 hours after carrageenin.
Turning to `CC(C(=O)O)c1ccc(C=C(Cl)Cl)cc1` (centres unmarked) [ST-35, sodium 2-[4-(2,2-dichlorovinyl)phenyl]propionate], the inhibition at 6 mg/kg was 46%.
